ChEMBL document CHEMBL1121684, “Selective and potent beta 2-adrenoceptor agents within the tetrahydroisoquinoline class: effect of methyl substitution at the benzylic carbon of the 1-(3,4,5-trimethoxybenzyl) group of trimetoquinol” (J Med Chem, 1981)

Tests used:
[1] = tested on: Beta-1 adrenergic receptor (Cavia porcellus); conditions: Cardiac atrium
[2] = biological target: Beta-2 adrenergic receptor (Cavia porcellus) (UniProt Q8K4Z4)
Chain of Beta-2 adrenergic receptor (Cavia porcellus) (Q8K4Z4 whole entry, looked up): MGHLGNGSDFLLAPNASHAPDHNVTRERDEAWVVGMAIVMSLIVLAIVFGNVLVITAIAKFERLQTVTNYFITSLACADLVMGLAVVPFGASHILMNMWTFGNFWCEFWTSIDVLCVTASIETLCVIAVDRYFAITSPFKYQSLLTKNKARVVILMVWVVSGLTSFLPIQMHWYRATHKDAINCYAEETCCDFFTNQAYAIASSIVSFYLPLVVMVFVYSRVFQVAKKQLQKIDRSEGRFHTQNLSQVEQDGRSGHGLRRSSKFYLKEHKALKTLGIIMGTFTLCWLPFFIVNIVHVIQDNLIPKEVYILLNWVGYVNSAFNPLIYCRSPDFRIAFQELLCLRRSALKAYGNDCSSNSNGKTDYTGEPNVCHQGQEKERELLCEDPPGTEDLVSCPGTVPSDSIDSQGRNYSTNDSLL
Description: Beta-2 adrenergic receptor activity in guinea pig tracheal smooth muscle

pD2 [1] | pD2 [2] | Structure (SMILES)
7.35 | 8.39 | COc1cc([C@@H](C)[C@@H]2NCCc3cc(O)c(O)cc32)cc(OC)c1OC
 | 8.15 | COc1cc(C[C@@H]2NCCc3cc(O)c(O)cc32)cc(OC)c1OC
6.67 | 7.15 | COc1cc([C@H](C)[C@@H]2NCCc3cc(O)c(O)cc32)cc(OC)c1OC
 | 4.47 | COc1cc(C(C)(C)[C@@H]2NCCc3cc(O)c(O)cc32)cc(OC)c1OC
